# PubChem BioAssay (NCI)
#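 A five-concentration, 48-hour dose response in 96-well plates underlies each endpoint, interpolated linearly between surrounding concentrations. TGI marks complete inhibition of growth.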
# Legend:
# Assay in all cases: NCI-60 cell line screen, 48 h
# [1] = system: 786-0 renal
# [2] = system: A549 NSCLC
# [3] = system: CAKI-1 renal
# [4] = system: CCRF-CEM leukemia
# [5] = system: COLO 205 colon
# [6] = system: DLD-1 colon
# [7] = system: DMS 114 small cell lung
# [8] = system: DMS 273 small cell lung
# [9] = system: EKVX NSCLC
# [10] = system: HCC-2998 colon
# [11] = system: HCT-116 colon
# [12] = system: HOP-92 NSCLC
# [13] = system: HT29 colon
# [14] = system: IGROV1 ovarian
# [15] = system: K-562 leukemia
# [16] = system: KM12 colon
# [17] = system: KM20L2 colon
# [18] = system: LOX IMVI melanoma
# [19] = system: LXFL 529 NSCLC
# [20] = system: M14 melanoma
# [21] = system: M19-MEL melanoma
# [22] = system: MALME-3M melanoma
# [23] = system: MOLT-4 leukemia
# [24] = system: NCI-H226 lung
# [25] = system: NCI-H23 lung
# [26] = system: NCI-H460 lung
# [27] = system: NCI-H522 lung
# [28] = system: OVCAR-3 ovarian
# [29] = system: OVCAR-4 ovarian
# [30] = system: OVCAR-5 ovarian
# [31] = system: OVCAR-8 ovarian
# [32] = system: RXF 393 renal
# [33] = system: SF-268 CNS
# [34] = system: SF-295 CNS
# [35] = system: SF-539 CNS
# [36] = system: SK-MEL-2 melanoma
# [37] = system: SK-MEL-28 melanoma
# [38] = system: SK-MEL-5 melanoma
# [39] = system: SK-OV-3 ovarian
# [40] = system: SN12C renal
# [41] = system: SNB-19 CNS
# [42] = system: SNB-75 CNS
# [43] = system: SNB-78 CNS
# [44] = system: SR leukemia
# [45] = system: SW-620 colon
# [46] = system: TK-10 renal
# [47] = system: U251 CNS
# [48] = system: UACC-62 melanoma
# [49] = system: UO-31 renal
# [50] = system: XF 498 CNS
# [51] = system: ACHN renal
# [52] = system: HCT-15 colon
# [53] = system: HOP-18 NSCLC
# [54] = system: HOP-62 NSCLC
# [55] = system: RXF-631 renal
# [56] = system: UACC-257 melanoma
smiles,measurement,setting,value
COc1ccc(/C=c2/sc3n(c2=O)NC(c2ccc(Cl)cc2)NN=3)cc1 (stereo not given),TGI,[1],> 100 µM
same,TGI,[2],> 100 µM
same,TGI,[3],> 100 µM
same,TGI,[4],> 100 µM
same,TGI,[5],> 100 µM
same,TGI,[6],> 100 µM
same,TGI,[7],> 100 µM
same,TGI,[8],> 100 µM
same,TGI,[9],> 100 µM
same,TGI,[10],> 100 µM
same,TGI,[11],> 100 µM
same,TGI,[12],> 100 µM
same,TGI,[13],> 100 µM
same,TGI,[14],> 100 µM
same,TGI,[15],> 100 µM
same,TGI,[16],> 100 µM
same,TGI,[17],> 100 µM
same,TGI,[18],> 100 µM
same,TGI,[19],> 100 µM
same,TGI,[20],> 100 µM
same,TGI,[21],> 100 µM
same,TGI,[22],> 100 µM
same,TGI,[23],> 100 µM
same,TGI,[24],> 100 µM
same,TGI,[25],> 100 µM
same,TGI,[26],> 100 µM
same,TGI,[27],> 100 µM
same,TGI,[28],> 100 µM
same,TGI,[29],> 100 µM
same,TGI,[30],> 100 µM
same,TGI,[31],> 100 µM
same,TGI,[32],> 100 µM
same,TGI,[33],> 100 µM
same,TGI,[34],> 100 µM
same,TGI,[35],> 100 µM
same,TGI,[36],> 100 µM
same,TGI,[37],> 100 µM
same,TGI,[38],> 100 µM
same,TGI,[39],> 100 µM
same,TGI,[40],> 100 µM
same,TGI,[41],> 100 µM
same,TGI,[42],78.1 µM
same,TGI,[43],> 100 µM
same,TGI,[44],> 100 µM
same,TGI,[45],> 100 µM
same,TGI,[46],> 100 µM
same,TGI,[47],> 100 µM
same,TGI,[48],> 100 µM
same,TGI,[49],> 100 µM
same,TGI,[50],> 100 µM
Cc1ccc(NC(=O)CC/C(CC(=O)C(C)(C)C)=N\Nc2ccc([N+](=O)[O-])cc2[N+](=O)[O-])cc1C,TGI,[1],> 100 µM
same,TGI,[2],> 100 µM
same,TGI,[51],> 100 µM
same,TGI,[4],98 µM
same,TGI,[5],> 100 µM
same,TGI,[6],> 100 µM
same,TGI,[7],> 100 µM
same,TGI,[9],> 100 µM
same,TGI,[11],> 100 µM
same,TGI,[52],> 100 µM
same,TGI,[53],> 100 µM
same,TGI,[54],61.9 µM
same,TGI,[12],> 100 µM
same,TGI,[13],> 100 µM
same,TGI,[14],> 100 µM
same,TGI,[15],> 100 µM
same,TGI,[16],> 100 µM
same,TGI,[17],> 100 µM
same,TGI,[18],97.2 µM
same,TGI,[19],> 100 µM
same,TGI,[20],20.4 µM
same,TGI,[21],> 100 µM
same,TGI,[23],> 100 µM
same,TGI,[24],> 100 µM
same,TGI,[25],> 100 µM
same,TGI,[26],> 100 µM
same,TGI,[30],> 100 µM
same,TGI,[31],> 100 µM
same,TGI,[32],> 100 µM
same,TGI,[55],> 100 µM
same,TGI,[33],> 100 µM
same,TGI,[34],> 100 µM
same,TGI,[35],> 100 µM
same,TGI,[36],> 100 µM
same,TGI,[37],> 100 µM
same,TGI,[39],> 100 µM
same,TGI,[41],> 100 µM
same,TGI,[43],> 100 µM
same,TGI,[44],> 100 µM
same,TGI,[45],> 100 µM
same,TGI,[46],> 100 µM
same,TGI,[47],> 100 µM
same,TGI,[56],> 100 µM
same,TGI,[48],> 100 µM
same,TGI,[49],> 100 µM
